Data published in US20020018808A1, “Vaccines against sterols” (priority 1990, published 2002).

What was measured:
[1] = ELISA of antisera from mice immunized with sterol-containing liposomes; format: in vivo, BALB/c mice
Method: Accordingly, the following study is designed to assess the immunogenicity of different cholesterol or sterol analogs for use in a vaccine to prevent hyper-cholesterolemia. Briefly summarized, several sterols such as cholesterol, vitamin D2, cholesteryl oleate, cholesteryl myristate, 4-cholesten-3-one, and phosphatidylcholesterol (17β-Linkage) and (3β-Linkage), are incorporated into liposomes containing DPMC (1.8), DMPG (0.2), Chol (1.5) (mol/mol) and lipid A (25 to 200 μg/mol, preferably 25 μg/mol phospholipid) so that the phospholipid concentration remains constant. These liposomes are inoculated into BALB/c mice i.p. at day 0 and day 14. Mice are bled at day 14 and day 21 and antibodies specific for the antigen are assessed by ELISA using the antigen itself or crystalline cholesterol.
Multilamellar vesicles (“MLV”) are produced by aliquotting DMPC:DMPG:Cholesterol, 9:1:7.5 (mol/mol), and lipid A at 25 to 200 μg/Imol phospholipid into a round bottom flask. The mixture is rotary evaporated, desiccated, and hydrated in sterile, deionized water. Lipids are lyophilized and reconstituted in PBS to 10 mM with respect to phospholipids and assayed for total phosphorous.
Male BALB/c mice, 6-8 weeks old, are bled and then immunized with 0.1 ml liposomes containing 1 μmol total phospholipid and 25-200 μg monophosphoryl lipid A ip. At 14 day intervals, mice are bled and sera collected. […]

[2] = Complement-dependent immune lysis assay of antisera (glucose release from liposomes); parameters: species or system BALB/c mice
Method: This assay measures antibody-mediated, complement-dependent release of encapsulated glucose from liposomes. Released glucose is measured spectrophotometrically using a Tris-buffered assay reagent containing hexokinase, glucose-6-phosphate dehydrogenase, ATP, and NADP. This particular assay is a measurement of antibody functional activity, rather than particle (antibody) detection.
In addition, the antisera from mice vaccinated with phosphatidylcholesterol could detect cholesterol present in liposomes containing 43% cholesterol as well as 71% cholesterol, and were equally as active against liposomes containing phosphatidylcholesterol in a complement-dependent immune lysis assay. […] In the above antibody-dependent immune lysis assays, a release greater than 5% indicates a positive reaction.
The test liposomes contained or lacked 5 mol % phosphatidylcholesterol. The antisera were tested using a complement-dependent immune lysis assay, wherein a release greater than 5% indicated a positive reaction.

SMILES	Antibody isotype induced ([1]; mice, detected by ELISA (FIG. 8))	Reactivity of generated antibody ([1]; compound of Example VI in liposomes)	Glucose release of test liposomes ([2]; immune lysis assay, liposomes composed of 5% phosphatidylcholesterol (17β-Linkage))	Liposome integrity in antibody-mediated immune lysis assay ([2]; more than 5 mol % phosphatidylcholesterol in liposomes containing 43 mol % cholesterol)
CC(C)CCC[C@@H](C)[C@H]1CC[C@H]2[C@@H]3CC=C4C[C@@H](O)CC[C@]4(C)[C@H]3CC[C@]12C [cholesterol]	induce primarily IgM			
CCCCCCCCCCCCCC(=O)OCC(COP(=O)(O)OCCNC(=O)[C@H]1CC[C@H]2[C@@H]3CC=C4C[C@@H](O)CC[C@]4(C)[C@H]3CC[C@]12C)OC(=O)CCCCCCCCCCCCC (stereo partly drawn) [phosphatidylcholesterol (17β-Linkage), N-(5-Androsten-3β-OL-17β-amido) dimyristoylphosphatidylethanolamine]		IgG antibody that reacts with crystalline cholesterol, 43% cholesterol liposomes, and 71% liposomes	glucose release equivalent to liposomes containing 43% and 71% cholesterol	leaky liposomes
